Assay results: article PMC7932537, “Quantitative profiling of protease specificity” (PLoS Computational Biology, 2021)

Columns and labels:
MMP-9 [1] = assay: Substrate phage display with NGS: relative probability (RP) of P3-P1' tetramer clusters; format: biochemical, human; conditions: MMP9; RP of the substrate's P3-P1' tetramer, substrate phage display with NGS;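 further: ratio of tetramer probability after protease selection to that in naive phage library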
MMP-2 = biological target: T1, MMP-2 (Homo sapiens, UniProt P08253); assay: K(obs) of individual phage substrates (set of 1369); format: biochemical; conditions: MMP2; individual phage substrate from the set of 1369 peptides; hyphen in the sequence marks the cleavage position
T1 sequence (P08253 110-660): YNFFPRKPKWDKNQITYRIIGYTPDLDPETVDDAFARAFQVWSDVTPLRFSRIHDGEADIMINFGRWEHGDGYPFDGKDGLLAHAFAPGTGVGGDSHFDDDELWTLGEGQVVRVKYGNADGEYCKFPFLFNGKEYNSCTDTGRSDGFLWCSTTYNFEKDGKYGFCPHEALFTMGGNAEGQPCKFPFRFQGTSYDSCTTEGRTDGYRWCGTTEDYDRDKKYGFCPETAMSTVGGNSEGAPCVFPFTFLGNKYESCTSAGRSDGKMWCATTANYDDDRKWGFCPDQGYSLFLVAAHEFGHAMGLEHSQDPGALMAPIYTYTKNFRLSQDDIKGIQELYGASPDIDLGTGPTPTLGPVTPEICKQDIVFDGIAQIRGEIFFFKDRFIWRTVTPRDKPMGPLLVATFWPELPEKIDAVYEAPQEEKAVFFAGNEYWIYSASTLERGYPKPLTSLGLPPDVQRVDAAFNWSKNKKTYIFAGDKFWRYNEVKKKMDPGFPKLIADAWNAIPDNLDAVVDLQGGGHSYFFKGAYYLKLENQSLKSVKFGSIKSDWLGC

MMP-9 [2] = biological target: MMP-9 (Homo sapiens, UniProt P14780); assay: as above; format: biochemical; conditions: MMP9; individual phage substrate of the set of 1369 peptides; dash in sequence marks cleavage position
MMP-9 (Homo sapiens, UniProt P14780), sequence (P14780 94-707): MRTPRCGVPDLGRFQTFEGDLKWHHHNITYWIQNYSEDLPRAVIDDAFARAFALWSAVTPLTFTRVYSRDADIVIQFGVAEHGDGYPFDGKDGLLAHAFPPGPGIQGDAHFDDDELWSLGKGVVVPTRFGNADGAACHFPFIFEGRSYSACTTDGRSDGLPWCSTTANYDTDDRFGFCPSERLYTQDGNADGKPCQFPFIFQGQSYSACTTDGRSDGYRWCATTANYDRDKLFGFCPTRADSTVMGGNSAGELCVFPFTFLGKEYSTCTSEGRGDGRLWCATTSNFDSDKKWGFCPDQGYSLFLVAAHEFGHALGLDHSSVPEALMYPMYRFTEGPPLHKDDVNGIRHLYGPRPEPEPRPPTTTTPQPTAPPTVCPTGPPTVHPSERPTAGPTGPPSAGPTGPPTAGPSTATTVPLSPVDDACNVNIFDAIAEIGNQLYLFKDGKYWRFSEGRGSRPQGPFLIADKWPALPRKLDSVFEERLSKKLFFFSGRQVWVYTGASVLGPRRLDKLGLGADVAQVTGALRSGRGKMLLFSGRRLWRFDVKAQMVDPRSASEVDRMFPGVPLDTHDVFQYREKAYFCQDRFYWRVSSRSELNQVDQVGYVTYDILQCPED

Substance | relative probability (RP) (MMP-9 [1]) | Kobs (MMP-2) | Kobs (MMP-9 [2])
GRPLN-LSTAS | 48.0943 | 12792.1 M⁻¹ s⁻¹ | 12792.1 M⁻¹ s⁻¹
TVPWS-VTASG | 31.0554 | 1071.29 M⁻¹ s⁻¹ | 12792.1 M⁻¹ s⁻¹
SGPRQ-LSTTA | 43.5363 | 12792.1 M⁻¹ s⁻¹ | 12792.1 M⁻¹ s⁻¹
SGPSR-LTFTA | 39.8157 | 12792.1 M⁻¹ s⁻¹ | 12792.1 M⁻¹ s⁻¹
SGISA-LRKTA | 16.3812 | 6688.74 M⁻¹ s⁻¹ | 0 M⁻¹ s⁻¹
GVPRG-VRTAS | 42.1832 | 12792.1 M⁻¹ s⁻¹ | 10866.7 M⁻¹ s⁻¹
HYVRA-HTASG | 18.814 | 10866.7 M⁻¹ s⁻¹ | 4205.91 M⁻¹ s⁻¹
SYPRA-YTASG | 46.2238 | 12792.1 M⁻¹ s⁻¹ | 12792.1 M⁻¹ s⁻¹
SSVSN-LTASG | 31.0505 | 12792.1 M⁻¹ s⁻¹ | 1610.61 M⁻¹ s⁻¹
GFTRW-LTASG | 25.6075 | 4763.33 M⁻¹ s⁻¹ | 6396.07 M⁻¹ s⁻¹
GLARA-LKTAS | 38.5396 | 12792.1 M⁻¹ s⁻¹ | 4335.13 M⁻¹ s⁻¹
WGTLA-LTASG | 8.919 | 1112.44 M⁻¹ s⁻¹ | 4613.14 M⁻¹ s⁻¹
VLFGA-LTASG | 2.95 | 8321.48 M⁻¹ s⁻¹ | 386.839 M⁻¹ s⁻¹
GTPRN-IKTAS | 46.5688 | 12792.1 M⁻¹ s⁻¹ | 12792.1 M⁻¹ s⁻¹
HRPEW-YTASG | 25.7162 | 3741.87 M⁻¹ s⁻¹ | 4082.43 M⁻¹ s⁻¹
FAPAE-VTASG | 5.593 | 12792.1 M⁻¹ s⁻¹ | 3438.54 M⁻¹ s⁻¹
ILVWN-YTASG | 30.7196 | 4922.1 M⁻¹ s⁻¹ | 12792.1 M⁻¹ s⁻¹
HTVYW-MTASG | 40.8648 | 2038.8 M⁻¹ s⁻¹ | 6396.07 M⁻¹ s⁻¹

Substance | relative probability (RP) (MMP-9 [1]) | Kobs (MMP-2) | Kobs (MMP-9 [2])
SGPVS-MRYTA | 41.2029 | 12792.1 M⁻¹ s⁻¹ | 7015.91 M⁻¹ s⁻¹
YIPTA-FTASG | 24.5969 | 12792.1 M⁻¹ s⁻¹ | 9740.44 M⁻¹ s⁻¹
QRVRG-VTASG | 13.8249 | 1327.88 M⁻¹ s⁻¹ | 619.843 M⁻¹ s⁻¹
IAPEF-LTASG | 20.835 | 12792.1 M⁻¹ s⁻¹ | 12792.1 M⁻¹ s⁻¹
SGPSW-IMRTA | 43.303 | 12792.1 M⁻¹ s⁻¹ | 12792.1 M⁻¹ s⁻¹
LGPSH-YTASG | 38.4805 | 12792.1 M⁻¹ s⁻¹ | 12792.1 M⁻¹ s⁻¹
SGPFS-NRATA | 1.097 | 292.668 M⁻¹ s⁻¹ | 2687.73 M⁻¹ s⁻¹
AMPKH-LTASG | 46.5072 | 12792.1 M⁻¹ s⁻¹ | 12792.1 M⁻¹ s⁻¹
GHPSP-FTASG | 37.3217 | 12792.1 M⁻¹ s⁻¹ | 0 M⁻¹ s⁻¹
NSPSD-LTASG | 38.1321 | 12792.1 M⁻¹ s⁻¹ | 9740.44 M⁻¹ s⁻¹
FIPFP-FTASG | 42.1583 | 12792.1 M⁻¹ s⁻¹ | 12792.1 M⁻¹ s⁻¹
LQLAL-YTASG | 1.077 | 12792.1 M⁻¹ s⁻¹ | 912.511 M⁻¹ s⁻¹
GFPRA-FRTAS | 44.1248 | 12792.1 M⁻¹ s⁻¹ | 7815.03 M⁻¹ s⁻¹
NGPYN-LTASG | 49.1716 | 5461.43 M⁻¹ s⁻¹ | 12792.1 M⁻¹ s⁻¹
GMPRA-YRTAS | 46.2238 | 12792.1 M⁻¹ s⁻¹ | 12792.1 M⁻¹ s⁻¹
GAPAR-FTTAS | 21.7112 | 12792.1 M⁻¹ s⁻¹ | 1071.29 M⁻¹ s⁻¹
FDVWM-LTASG | 17.1619 | 912.511 M⁻¹ s⁻¹ | 1283.43 M⁻¹ s⁻¹
